The target in one assay is T1, TPH1 (Homo sapiens, UniProt P17752).
T1 construct: doubly truncated human TPH1 (ΔNH102-ΔCOOH402); made in house; host or cells: E. coli BL21(DE3)
Put plainly: Differential scanning fluorimetry (DSF) thermal stability assay. The class given is binding. The settings on record: DSF, 50 μM compound. As for the experimental part:
A fluorescence-based thermal stability assay (differential scanning fluorimetry, DSF) was used for testing the effects of HDIs on the thermal stability of TPH1.
For initial high throughput screening (HTS), compounds were prepared at a concentration of 10 mM (in some cases, 5 mM) in 100% DMSO. Initial HTS screening was performed on TPH1 with and without compounds using a LightCycler 480 Real-Time PCR System (Roche Applied Science). TPH1 was diluted to 0.075 mg/mL in 50 mM Tris pH 8.0, 200 mM NaCl, 0.5 mM TCEP, and 5% glycerol with 5x SYPRO Orange. Compounds were added to a final concentration of 50 μM. Controls with 0.5% DMSO were performed on each 384-well microplate. Unfolding curves were recorded from 20 to 95 °C at a scan rate of 2 °C/min and monitored at excitation = 465 nm and emission = 610 nm. Selected hits were validated further by serial dilution from 250 μM to 122 nM, keeping the DMSO concentration constant at 2%.
DSF data were analyzed using HTSDSF Explorer.[55] Melting temperature (Tm) was calculated from the maximum value of the first derivative of the unfolding curve. ΔTm (Tm with compound–averaged Tm in DMSO controls) was plotted for all validated curves and a threshold of 2 °C was set (typically, cutoff at ΔTm = 3-fold the SD of the Tm of the DMSO control).
Preliminary binding constants (KD) were calculated by fitting data to the equation [drawing 1] where ΔH0 is the enthalpy of the unfolding of the protein in the presence of ligand ([L]), and R is the gas constant.

Assay [1] has as its system AAAHs (PAH, TH, TPH1, TPH2). Put plainly: Enzyme activity assays, statement over all four AAAHs. The class given is biochemical, human. As for the experimental part:
(§1) The activity of purified PAH, TH, TPH1, and TPH2 was measured using high-performance liquid chromatography (HPLC) as previously described.[50],[56],[57]
TPH1 enzymatic activity assays were performed with the selected hits from the DSF screening in the presence and absence of 50 μM of each compound. The final concentration of DMSO was 0.5% (v/v), and control experiments used 0.5% DMSO in the absence of ligand. Assays were performed in a standard reaction mixture containing 40 mM Hepes pH 7.0, 200 mM NaCl, 0.1 mg/mL catalase, 0.5 mg/mL BSA, 10 μM ferrous ammonium sulfate, and 30 μM L-tryptophan (L-Trp). Compounds were incubated with TPH1 (0.02 mg/mL) in the reaction mixture for 10 min on ice. The enzymatic reaction was initiated by adding 200 μM BH4 and 2 mM DTT (final concentrations) and stopped by precipitation with 2% (v/v) acetic acid in ethanol after 3 min at 37 °C. The product, 5-hydroxy-tryptophan (5-OH-Trp), was quantified by HPLC utilizing a fluorescence monitor set at 302 and 350 nm for excitation and emission, respectively. […]. […]
PAH activities were performed in a standard reaction mixture containing 100 mM Hepes (pH 7.0), 0.04 mg/mL catalase, 0.05% BSA, 10 μM ferrous ammonium sulfate, and 1 mM phenylalanine (Phe). […] The product, L-Tyrosine (L-Tyr), was quantified by HPLC utilizing a fluorescence monitor set at 274 and 304 nm for excitation and emission, respectively. […]

Another assay deals with HDAC 1. The settings on record: human recombinant HDAC, cited from earlier work.
Another assay deals with HDAC 8. To be noted: human recombinant HDAC, cited from earlier work.
Another assay deals with dopamine transporter. The arrangement: method as in PMID 21785940. The settings on record: neuroblastoma cells; cited from earlier work.
Another assay concerns serotonin transporter. More on the design: method as in PMID 21785940. The settings on record: neuroblastoma cells; cited from earlier work.
The target of assay [2] is T2, doubly truncated human TPH1 (ΔNH102-ΔCOOH402) (Homo sapiens, UniProt P17752).
T2 construct: doubly truncated human TPH1 (ΔNH102-ΔCOOH402); made in house; host or cells: E. coli BL21(DE3)
Put plainly: TPH1 enzyme activity assay (HPLC, 5-OH-Trp). The class given is biochemical. To be noted: best-fit IC50 (± SE), nonlinear regression; N.A. = no activity.

For a further assay, the target named is T3, human TPH2 (Homo sapiens, UniProt Q8IWU9).
T3 construct: Full-length human TH isoform 1 (TH1), human PAH, human TPH2, and doubly truncated human TPH1; MBP (cleaved yes); made in house; host or cells: E. coli BL21(DE3)
T3 sequence (Q8IWU9 1-490): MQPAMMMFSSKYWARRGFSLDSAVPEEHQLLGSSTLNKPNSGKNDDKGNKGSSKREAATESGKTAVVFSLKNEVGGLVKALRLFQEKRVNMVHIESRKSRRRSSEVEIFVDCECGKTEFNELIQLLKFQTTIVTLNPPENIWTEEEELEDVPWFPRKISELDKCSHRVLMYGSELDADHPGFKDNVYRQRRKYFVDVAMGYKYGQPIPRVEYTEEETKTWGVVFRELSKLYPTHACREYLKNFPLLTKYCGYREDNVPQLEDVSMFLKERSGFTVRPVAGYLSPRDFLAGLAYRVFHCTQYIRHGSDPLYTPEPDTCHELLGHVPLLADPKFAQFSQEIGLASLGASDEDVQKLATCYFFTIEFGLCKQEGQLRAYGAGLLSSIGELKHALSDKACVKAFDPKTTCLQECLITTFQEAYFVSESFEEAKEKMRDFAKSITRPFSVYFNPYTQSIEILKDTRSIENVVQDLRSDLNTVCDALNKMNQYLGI
The assay is described as follows: TPH2 enzyme activity assay (HPLC). The class given is biochemical. To be noted: best-fit IC50 (± SE), nonlinear regression; N.A. = no activity.

The target in a further assay is T4, human PAH (Homo sapiens, UniProt P00439).
T4 construct: Full-length human TH isoform 1 (TH1), human PAH, human TPH2, and doubly truncated human TPH1; made in house; host or cells: E. coli TB1
T4 sequence (P00439 1-452): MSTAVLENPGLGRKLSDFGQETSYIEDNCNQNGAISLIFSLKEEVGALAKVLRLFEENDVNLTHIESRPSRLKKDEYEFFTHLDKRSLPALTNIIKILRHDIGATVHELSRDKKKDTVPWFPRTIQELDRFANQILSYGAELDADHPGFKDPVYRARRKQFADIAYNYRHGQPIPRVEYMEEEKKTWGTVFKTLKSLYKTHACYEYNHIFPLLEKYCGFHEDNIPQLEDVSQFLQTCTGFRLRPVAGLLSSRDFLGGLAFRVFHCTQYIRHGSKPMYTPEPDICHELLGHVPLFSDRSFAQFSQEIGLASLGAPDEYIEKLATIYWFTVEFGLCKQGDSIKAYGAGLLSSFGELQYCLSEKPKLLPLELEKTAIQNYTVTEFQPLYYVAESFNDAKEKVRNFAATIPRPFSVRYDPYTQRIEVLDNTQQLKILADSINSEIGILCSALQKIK
Put plainly: PAH enzyme activity assay (HPLC, L-Tyr). The class given is biochemical.

Another assay has as its target T5, human TH isoform 1 (TH1) (Homo sapiens, UniProt P07101).
T5 construct: Full-length human TH isoform 1 (TH1); His6-ZZ fusion partner (one of the two preparations only) (cleaved yes); made in house; host or cells: E. coli BL21(DE3) pLysS (pET3a) or BL21 CodonPlus (pET-ZZ-1a)
The assay is described as follows: TH enzyme activity assay (HPLC, L-DOPA). The class given is biochemical. The settings on record: best-fit IC50 (± SE), nonlinear regression; N.A. = no activity. As for the experimental part:
as §1
TH activities were performed in a standard reaction mixture containing 40 mM Hepes (pH 7.0), 0.1 mg/mL catalase, 10 μM ferrous ammonium sulfate, and 50 μM L-Tyr. Compounds were incubated with TH (0.01 mg/mL) in the reaction mixture for 10 min on ice. The enzymatic reaction was initiated by adding 200 μM BH4 and 2 mM DTT (final concentrations) and stopped by precipitation with 2% (v/v) acetic acid in ethanol after 5 min at 37 °C. The product, L-DOPA, was quantified by HPLC utilizing a fluorescence monitor set at 281 and 314 nm for excitation and emission, respectively.
GraphPad Prism (version 10; La Jolla, CA) was used for analyzing the enzyme inhibition data.

In the next assay the target is T6, endogenous PAH (Homo sapiens, UniProt P00439).
T6 construct: increased melting temperatures (ΔTm) of endogenous PAH; endogenous in cells; host or cells: HepG2
T6 sequence (P00439 1-452): T4 sequence (P00439 1-452)
The assay is described as follows: Cellular thermal shift assay (CETSA) in HepG2 cells. The class given is cell-based. The settings on record: 50 μM compound, 1 h, vs DMSO. As to the method: Then, cells were washed, harvested using trypsin, and pelleted by centrifugation. The pellet was washed twice with PBS supplemented with complete EDTA-free protease inhibitor cocktail (Roche) and divided into 14 aliquots of 35 μL containing 800,000 cells. Cells were then frozen in liquid nitrogen and thawed at 25 °C three times, and each aliquot was heated to a defined temperature by applying a gradient between 39 °C and 69 °C in a thermocycler (peQSTAR, PeQlab; 16-well gradient, 54 °C ± 15 °C). After 3 min incubation, aliquots were snap frozen in liquid nitrogen and thawed at 25 °C. Cell lysates were centrifuged at 20,000 g (4 °C) for 20 min. Supernatants were mixed with 5x loading buffer, heated to 70 °C for 5 min and analyzed by Western blotting. Chemoluminescence signals were recorded with a FusionSL, Vilber Lourmat (peQlab) and quantified using FusionCapt Advance FX7 16.01c software. Calculation of ΔTm was conducted using the Boltzmann sigmoidal model in GraphPad prism 7.01.
Cell lysates used for Western blot analysis were prepared as described in the Methods section (Cellular Thermal Shift Assay). […] Chemoluminescence signals were recorded with an FusionSL, Vilber Lourmat (peQlab) and quantified using FusionCapt Advance FX7 16.01c software.

In the next assay the test system is HDAC 6. The settings on record: human recombinant HDAC; ref 6 (10.1002/cmdc.201800238); cited from earlier work.

The structures appear in SMILES notation. Values joined by “and” are separate entries in the source; they are usually repeats but may differ in a detail not shown here. Equal entries are not always repeated. Where two headings read alike, the source gives them in different places.

T1 sequence (P17752 102-402): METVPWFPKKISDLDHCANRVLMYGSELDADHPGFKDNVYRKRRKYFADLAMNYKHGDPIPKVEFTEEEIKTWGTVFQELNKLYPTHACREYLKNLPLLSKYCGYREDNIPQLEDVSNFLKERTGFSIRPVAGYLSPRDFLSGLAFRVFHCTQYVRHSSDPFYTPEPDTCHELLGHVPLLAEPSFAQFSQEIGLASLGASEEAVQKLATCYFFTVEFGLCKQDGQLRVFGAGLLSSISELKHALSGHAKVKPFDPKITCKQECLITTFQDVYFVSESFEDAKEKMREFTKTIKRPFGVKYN
T2 sequence (P17752 102-402, stated change not applied): as the sequence (P17752 102-402) above
T5 sequence (P07101 1-497 isoform P07101-3): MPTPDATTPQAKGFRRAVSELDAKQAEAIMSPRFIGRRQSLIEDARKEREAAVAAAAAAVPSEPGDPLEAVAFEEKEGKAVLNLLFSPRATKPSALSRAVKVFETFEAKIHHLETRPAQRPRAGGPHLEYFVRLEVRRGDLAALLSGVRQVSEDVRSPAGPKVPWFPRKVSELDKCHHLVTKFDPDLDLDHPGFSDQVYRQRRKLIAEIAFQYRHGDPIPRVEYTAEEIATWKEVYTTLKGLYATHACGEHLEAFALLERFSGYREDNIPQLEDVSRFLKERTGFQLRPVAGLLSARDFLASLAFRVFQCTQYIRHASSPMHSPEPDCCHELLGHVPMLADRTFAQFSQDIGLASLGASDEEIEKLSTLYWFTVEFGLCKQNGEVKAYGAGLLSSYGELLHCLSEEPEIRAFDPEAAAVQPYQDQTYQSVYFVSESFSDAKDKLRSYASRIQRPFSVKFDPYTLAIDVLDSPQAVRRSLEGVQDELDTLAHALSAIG

As usually defined, the ΔTm is the shift of the melting midpoint relative to a reference. As a reminder, the IC50 is the concentration that gives 50% inhibition. As to `Nc1ccccc1NC(=O)c1ccc(CNc2nccc(-c3cccnc3)n2)cc1` [mocetinostat, reference compound], the “Tm (°C) ± SD (°C), primary screen” value on TPH1 (0.075 mg/mL TPH1, 0.5% DMSO, three independent measurements (a: duplicates)) turned out to be 54.5 ± 0.2 °C. Also, the ΔTm at 50 µM on TPH1 (vs averaged Tm of 0.5% DMSO controls, read-out: ΔTm (°C) ± SD (°C), primary screen) is -0.8 °C. The “inhibitory activity against all the AAAHs” value in assay [1] is “completely inactive”. The figures for the IC50 in the assay on HDAC 1 (ref 2 (PMID: 23829483)) and in the assay on HDAC 8 (ref 2 (PMID: 23829483)) were 0.098 ± 0.055 µM and 35 ± 4.4 µM, respectively.

As for `CC(/C=C/C(=O)NO)=C\[C@@H](C)C(=O)c1ccc(N(C)C)cc1` [trichostatin A], in the assay with dopamine transporter, the “increase of dopamine transporter expression” value was 45 fold. In addition, the “increase of serotonin transporter expression” value with serotonin transporter is recorded as 15 fold.

As for `O=C(/C=C/c1ccccc1Oc1ccc(Cl)cc1)NO` [TB57, (2E)-3-[2-(4-Chlorophenoxy)phenyl]-N-hydroxy-2-propenamide], the “ΔTm (°C) ± SD (°C), primary screen” value at TPH1 (vs averaged Tm of 0.5% DMSO controls) was -3.4 ± 0.1 °C. The IC50 in [2] is 49.6 µM; against human TPH2, 195 µM; at human PAH (best-fit IC50 (± SE), nonlinear regression, N.A. = no activity, read-out: IC50 (μM) PAH), 1.55 µM and 1.6 µM; with HDAC 1 (ref 6 (10.1002/cmdc.201800238)), 13.4 ± 2.4 µM; in the assay on HDAC 8 (ref 6 (10.1002/cmdc.201800238)), 0.15 ± 0.03 µM; in the assay with HDAC 6 it was 11.4 ± 2.5 µM. The “selectivity toward PAH in comparison to TPH1” value on human PAH (from IC50 values of Table 2) is listed as 30 fold. Further, on human PAH (from IC50 values of Table 2), the “selectivity toward PAH in comparison to TPH2” value is 125 fold. For the same compound, at human TH isoform 1 (TH1), the “IC50 (μM) TH” value is on record as “no inhibition”. The “ΔTm of endogenous PAH (CETSA)” value at endogenous PAH was determined as 4.8 °C.

The values are drawn from paper PMC11587510, “Aromatic Amino Acid Hydroxylases as Off-Targets of Histone Deacetylase Inhibitors” (ACS Chemical Neuroscience, 2024).
